Source: PubChem BioAssay AID2305 (GlaxoSmithKline (GSK), 2010)

Each molecule was assayed on P. falciparum 3D7 growth, pLDH absorbance (assay: blood-stage malaria parasite growth potency – strain 3D7, dose response (AID 2305)).
In the case of COc1cc(C(F)(F)F)cc2[nH]c(CNCCCNc3nc4ccccc4[nH]3)cc12, the IC50 is reported as 0.28 µM.
CC(C)Cn1cc(C2CCN(CCN3CCC(CNC(=O)c4ccc(-c5ccc(C(F)(F)F)cc5)cc4)CC3)CC2)c2ccccc21 gave an IC50 of 0.75 µM.
In the case of O=C(/C=C/c1ccc(Cl)c(Cl)c1)NC1CCN(Cc2ccc(O)cc2)C1 (stereo not drawn), the IC50 is reported as 0.95 µM.
With COCCNC(=O)c1ccc(OC2CCN(CC(C)=Cc3ccccc3)CC2)c(Cl)c1 the IC50 was 0.65 µM.
Work on C[C@H](NC(=O)c1c(CN2CCC(N3CCCCC3=O)CC2)c(-c2cccs2)nc2ccccc12)C1CCCCC1 yielded an IC50 of 0.9 µM.
Oc1c(C(Nc2ccccn2)c2ccco2)cc(Cl)c2cccnc12 (stereo not drawn) showed an IC50 of 1.01 µM.
In the case of Cc1ccc2c(c1)NC[C@@]21CCN(C[C@@H](O)C2CCN(c3ccnc(Cl)c3)CC2)C[C@@H]1C, the IC50 is reported as 0.94 µM.
For COc1cccc(Nc2nc(C)cc(NCc3ccc(-c4c(C)noc4C)cc3)n2)c1, the IC50 was 0.88 µM.
With Clc1cccc(C23N=C(Nc4nc5ccccc5[nH]4)NC2(c2ccccc2)NC(Nc2nc4ccccc4[nH]2)=N3)c1 (stereo not drawn) the IC50 was 0.52 µM.
Work on C=CCc1cccc(CN2CCC(c3cc(=O)[nH]c(-c4ccccn4)n3)CC2)c1O yielded an IC50 of 1.1 µM.
NC1=NC2(CCCCC2)N(Cc2ccc(Cl)c(Cl)c2)C(N)=N1 showed an IC50 of 0.62 µM.
Cc1cc2c(cc1C(F)(F)F)N(C(=O)Nc1ccc(OCCN(C)C)c(C(F)(F)F)c1)CC2 was tested, and the IC50 was 0.91 µM.
With Cc1ccc(F)c(C(=O)Nc2cccc(-c3nn4ccccc4c3-c3ccnc(Nc4cccc(F)c4)n3)c2)c1F the IC50 was 1.05 µM.
Molecule O=S(=O)(NC1CCN(c2ccnc3ccccc23)C1)c1ccc(OC(F)(F)F)cc1 (stereo not drawn) has an IC50 of 1.08 µM.
Molecule COc1ccc(CNCCc2cccs2)cc1-c1ccc(S(=O)(=O)NCCN2CCCC2)cc1 has an IC50 of 0.65 µM.
O=C(NCC1CCN(Cc2ccsc2)C1)c1cc(-c2cccc(C(F)(F)F)c2)cs1 (stereo not drawn) was tested, and the IC50 was 0.7 µM.
For CC(=O)c1ccc(N2CCN(C(=O)Nc3ccc(Cl)cc3)CC2)cc1, the IC50 was 0.98 µM.
O=C(Cn1cc(C(F)(F)F)cc(Cl)c1=O)N1CCN(S(=O)(=O)c2ccc(Cl)cc2)CC1 showed an IC50 of 0.9 µM.
For CC(CN1CCN(C)CC1)C(=O)Nc1ccc(-c2ccc(-c3nc4ccc(C(F)(F)F)cc4[nH]3)cc2)cc1 (stereo not drawn), the IC50 was 0.41 µM.
Work on Oc1cccc(/C=N/Nc2ccnc3cc(Cl)ccc23)c1 yielded an IC50 of 0.73 µM.
For Brc1cc(Br)c2c(c1)C(NCCCNc1nc3ncccc3[nH]1)CCN2 (stereo not drawn), the IC50 was 0.59 µM.
Work on CN(CCN1CCC(c2c[nH]c3ccccc23)CC1)C(=O)OCCCCCNC(=O)/C=C/c1ccc(Cl)c(Cl)c1 yielded an IC50 of 0.68 µM.
O=c1cc(NCCCNC(CNCCc2ccccc2)c2cc(Br)cc(Br)c2)[nH]c2ccccc12 (stereo not drawn) was tested, and the IC50 was 0.86 µM.
COc1ccc2nc3cc(Cl)ccc3c(NCCCCN3CCNCC3)c2c1 was tested, and the IC50 was 0.18 µM.
CN1CCc2ccc(NC(=O)Nc3cccc(C(=O)c4ccccc4)c3)cc2C1 gave an IC50 of 0.92 µM.
With O=C(Cn1c(CCc2cccc(F)c2F)cc(=O)c2cccnc21)N(CCN1CCCC1)Cc1ccc(-c2ccc(C(F)(F)F)cc2)cc1 the IC50 was 0.89 µM.
Molecule CC(=O)Nc1ccc(CN2CCC(NC(=O)c3ccc(-c4cccc(OC(C)C)c4)s3)CC2)cc1 has an IC50 of 1.46 µM.
With CC(C)C(=O)NC(c1ccc(Cl)cc1)c1ccc2cccnc2c1O (stereo not drawn) the IC50 was 0.87 µM.
Cc1cc(C=C(P(=O)(OC(C)C)OC(C)C)P(=O)(OC(C)C)OC(C)C)c2ccccc2c1O gave an IC50 of 1.08 µM.
Work on N#Cc1ccc2c(c1)CCN(CCC1CCC(NC(=O)Nc3ccncc3)CC1)C2 (stereo not drawn) yielded an IC50 of 1.13 µM.
CCNC(=O)N[C@@H]1CN[C@@H](C#Cc2cc3c(Nc4ccc(OCc5cccc(F)c5)c(Cl)c4)ncnc3s2)C1 showed an IC50 of 1.01 µM.
Molecule Cc1ccc(-n2c(Sc3ncnc4sccc34)nnc2N2CCCC2)cc1 has an IC50 of 0.26 µM.
CCOc1cc(C(=O)Nc2ccc3nc(N4CCCCC4)cc(C)c3c2)cc(OCC)c1OCC showed an IC50 of 0.82 µM.
Cc1ccc(C(C)C)c(Oc2cnc(NC(CO)c3ccccc3)nc2N)c1 (stereo not drawn) gave an IC50 of 0.96 µM.
CCNc1cc(C(=O)N[C@@H](Cc2ccccc2)[C@H](O)CN[C@H](C)C(C)(C)C)cc(N2CCCCS2(=O)=O)c1 was tested, and the IC50 was 0.82 µM.
In the case of O=c1ccc2ccc(O)c(O)c2o1, the IC50 is reported as 0.03 µM.
Cc1cccc2[nH]c(-c3cccc(-c4ccc(NC(=O)c5ccoc5)cc4)c3)nc12 showed an IC50 of 0.7 µM.
COC(=O)Nc1nc2cc3c(cc2s1)OCCO3 gave an IC50 of 0.84 µM.
Work on COc1cc2c(cc1OCCN1CCC(N3CCCC3)CC1)N(C(=O)/C=C/c1ccccc1Cl)CC2 yielded an IC50 of 0.66 µM.
With Cc1nc(NCCc2cnc[nH]2)cc(NCc2ccccc2)n1 the IC50 was 0.83 µM.
With CCOC(=O)Nc1cc(-c2csc(N=C(N)N)n2)cc([N+](=O)[O-])c1 the IC50 was 0.82 µM.
Work on O=S(=O)(NC1CCCCN(Cc2ccccc2O)C1)c1ccc(C(F)(F)F)cc1 (stereo not drawn) yielded an IC50 of 1.3 µM.
For Oc1ccc(-c2nc3c4cc(I)ccc4c4ccc(I)cc4c3[nH]2)cc1, the IC50 was 0.97 µM.
CN1CCN(c2ccc(Nc3nccc(-c4cnn5ncccc45)n3)cc2Cl)CC1 gave an IC50 of 0.83 µM.
O=C(Nc1cccc(N2CCC(NCc3cnn(-c4cccc(F)c4)c3)CC2)c1)c1ccncc1 showed an IC50 of 1.39 µM.
Work on O=C(Nc1ccc(OC2CCN(Cc3ccc(F)cc3)CC2)c(Cl)c1)c1cccs1 yielded an IC50 of 0.32 µM.
In the case of Cc1cc(NC(=O)c2coc3cc(F)c(N4C[C@@H](C)N(C)[C@@H](C)C4)cc23)cnc1-c1ccc(C#N)cc1, the IC50 is reported as 0.7 µM.
For COc1c(C2CCN(CCCCNC(=O)c3oc(-c4ccc(Cl)cc4)cc3CO)CC2)ccc2c1CCCC2, the IC50 was 0.37 µM.
CCCCN1CCN(CCCNc2c3ccccc3nc3ccccc23)CC1 showed an IC50 of 0.51 µM.
CCNc1cc(C)nc(Nc2ccccc2)n1 was tested, and the IC50 was 0.88 µM.
Work on Nc1c(-c2ccc(C(=O)NCCNCc3ccccc3)cc2)cnn1-c1ccc(C(F)(F)F)cc1 yielded an IC50 of 1.16 µM.
With CNC(=O)c1ccc2[nH]cc(C3CCN(CC4CCC(NC(=O)/C=C/c5ccccc5Cl)CC4)CC3)c2c1 (stereo not drawn) the IC50 was 0.84 µM.
With N#Cc1cccc(NC(=O)Nc2ccc(-c3cccc(-c4nc5ccc(F)cc5[nH]4)c3)cc2)c1 the IC50 was 0.27 µM.
In the case of Cc1[nH]c2cc(F)ccc2c1C1=CCN(CCCCC2(C)C(=O)Nc3ccccc32)CC1 (stereo not drawn), the IC50 is reported as 0.29 µM.
In the case of O=C(NC1CCN(Cc2ccccc2)CC1)c1ccc(-c2nc3cc(Cl)c(F)cc3[nH]2)s1, the IC50 is reported as 0.31 µM.
Molecule CC(=O)Oc1c(C2CCN(CCCCNC(=O)c3ccc(-c4ccc(C#N)cc4)cc3)CC2)ccc2c1CCCC2 has an IC50 of 1.13 µM.
CCN(CC)CCN(Cc1ccc(-c2ccc(C(F)(F)F)cc2)cc1)C(=O)Cn1c(CCc2cc(F)ccc2F)nc(=O)c2ccccc21 was tested, and the IC50 was 0.83 µM.
Cc1cc(N[C@@H](Cc2ccccc2)C(=O)NCc2cccs2)nc(Nc2ccccc2)n1 gave an IC50 of 1.24 µM.
CCCCCC(C)N=C(Nc1ccc(C#N)cc1O)Nc1ccccc1Br (stereo not drawn) showed an IC50 of 0.75 µM.
CCN(CC)c1ccc(C(c2ccc(N(CC)CC)cc2)c2cccc([N+](=O)[O-])c2)cc1 gave an IC50 of 0.38 µM.
With COc1cc2ccccc2cc1OCCCN1CCN(CC(c2ccc(F)cc2)N2CCN(C(C)C)CC2)CC1 (stereo not drawn) the IC50 was 0.75 µM.
O=C(NCc1cccc(C(F)(F)F)c1)C1CCCN(C(=O)c2ccc(O)c(-c3ccc(Cl)c(Cl)c3)c2)C1 (stereo not drawn) gave an IC50 of 0.8 µM.
In the case of COc1ccc(CNCc2ccc(F)cc2)cc1-c1ccc(S(=O)(=O)NCCN2CCCC2)cc1, the IC50 is reported as 1.04 µM.
In the case of Cc1ccc(NC(=O)Nc2ccc(Cl)cc2)cc1-c1ccc(C(=O)Nc2ccncc2)cc1, the IC50 is reported as 0.53 µM.
For CCc1cccc(-n2nc(OCC(=O)NC3CCCC3)c3cccnc32)c1, the IC50 was 0.93 µM.
Work on Cc1nc(-c2nc(N3CCC(C(N)=O)CC3)ncc2-c2ccsc2)sc1C yielded an IC50 of 0.9 µM.
Cc1cc(=O)c2cc(Oc3ccc(OC(F)(F)F)cc3)ccc2[nH]1 gave an IC50 of 0.99 µM.
COc1ccc(OCCn2cc(C(=O)c3ccco3)c3ccccc32)cc1 showed an IC50 of 0.77 µM.
CC(C)CC1(C(=O)OC(C)(C)C)CC(C(=O)OC(C)(C)C)C(c2cccs2)N1C(=O)c1ccc(C(C)(C)C)cc1 (stereo not drawn) gave an IC50 of 0.14 µM.
Molecule Cc1cccc2[nH]c(-c3ccc(-c4ccc(C(=O)NCCc5cn(C)cn5)cc4)s3)nc12 has an IC50 of 0.96 µM.
CCC(CC(C)C(=O)O)=C(c1ccccc1)c1ccccc1 (stereo not drawn) gave an IC50 of 0.22 µM.
CC(C)(C)c1cc(NC2CC2)nc(-c2ccccn2)n1 gave an IC50 of 0.72 µM.
For Nc1c(C(=O)NCCCCN2CCN(c3nsc4ccccc34)CC2)sc2ccccc12, the IC50 was 1.32 µM.
In the case of CC(C)(C)c1ccc(NC(=O)c2cccc(CN3CCCN(CC4CCCCC4)CC3)c2)cc1, the IC50 is reported as 0.74 µM.
In the case of COc1cccc(C2CCN(CCN3CCC(NC(=O)c4ccc(-c5ccc(Cl)cc5)cc4)CC3)CC2)c1, the IC50 is reported as 1.09 µM.
CC(C)(C)Nc1cc(C(=O)N[C@@H](Cc2ccccc2)[C@H](O)CNC2CCOCC2)cc(N2CCCCS2(=O)=O)c1 gave an IC50 of 0.15 µM.
With Cc1onc(-c2c(Cl)cccc2Cl)c1C(=O)NC1=NC(C)(C)ON1c1ccccc1 the IC50 was 1.07 µM.
For NC(=O)c1cc2nc(NC3CCC3)nc(Nc3cccc4[nH]ncc34)c2[nH]1, the IC50 was 0.73 µM.
In the case of O=C(NC1CCCCC1)N(Cc1ccc(-c2cccc(CNC3CCCC3)c2)cc1)C1CCN(Cc2ccccc2)CC1, the IC50 is reported as 0.78 µM.
CCOc1cc(C)ccc1C1CCN(CCCCNC(=O)c2ccc(NC(=O)c3cc(Cl)cc(Cl)c3)cc2)CC1 showed an IC50 of 0.36 µM.
Work on Clc1ccc2c(NCc3ccccc3)ccnc2c1 yielded an IC50 of 0.34 µM.
Molecule O=C(Nc1cccc(CN2CCN(C(=O)c3cccc(Cl)c3)CC2)c1)c1cccs1 has an IC50 of 0.18 µM.
In the case of O=C(Nc1cc(C(F)(F)F)cc(C(F)(F)F)c1)N1CCC(CCN2CCC(c3c[nH]c4ccccc34)CC2)CC1, the IC50 is reported as 1.26 µM.
Molecule CS(=O)(=O)Nc1ccc2[nH]cc(C3CCN(CC4CCN(C(=O)/C=C/c5ccc(Cl)c(Cl)c5)CC4)CC3)c2c1 has an IC50 of 0.72 µM.
Molecule Clc1ccc2c(NN=Cc3cccs3)ccnc2c1 has an IC50 of 0.92 µM.
In the case of CCNc1cc(C)nc(Nc2ccc(NC(=O)c3ccccc3Br)cc2)n1, the IC50 is reported as 0.74 µM.
CCCCN=C(N)c1ccc(OCCCCCOc2ccc(C(N)=NCCCC)cc2)cc1 was tested, and the IC50 was 0.11 µM.
For Cc1cc(C2CCCCN2C)ccc1-c1ccc(C(=O)N2CCc3cc4c(cc32)C2(CCN(C)CC2)CO4)cc1 (stereo not drawn), the IC50 was 0.79 µM.
Oc1ccc(Br)cc1-c1nc2ccc(Cl)cc2nc1-c1cc(Br)ccc1O showed an IC50 of 0.79 µM.
With c1ccc2c(CNc3ccnc(NCc4cccc5ccccc45)n3)cccc2c1 the IC50 was 0.56 µM.
Molecule COc1c(C2CCN(CCCCNC(=O)c3noc(-c4ccc(C#N)cc4)n3)CC2)ccc2c1CCCC2 has an IC50 of 0.78 µM.
COc1cccc(NC(=O)c2cc([N+](=O)[O-])ccc2NC(=O)CN2CCc3ccccc3C2)c1 gave an IC50 of 0.59 µM.
OC(CNC1CCCCC1)Cn1c2ccccc2c2ccccc21 (stereo not drawn) gave an IC50 of 0.99 µM.
Work on COCCNCc1nc(-c2ccc3c(Nc4ccc(Cl)cc4F)ccnc3c2)cs1 yielded an IC50 of 1.08 µM.
Work on CC(=O)CC(=O)N1CCN(c2ccccc2)CC1 yielded an IC50 of 1.06 µM.
Work on CCCN(CCC)CCCN(CCCN(CCC)CCC)c1cc(C)nc(Nc2ccc3cc(Br)ccc3c2)n1 yielded an IC50 of 0.21 µM.
In the case of CC(CN1CCN(C)CC1)C(=O)Nc1ccc(-c2ccc(-c3nc4ccccc4[nH]3)cc2)cc1 (stereo not drawn), the IC50 is reported as 0.95 µM.
In the case of Cc1ccc(CC(C)NC[C@H](O)c2cccc(Cl)c2)cc1 (stereo partly drawn), the IC50 is reported as 0.86 µM.
